Laboratory results reported in PubChem BioAssay AID588839 (The Scripps Research Institute Molecular Screening Center, 2011).
Calls of active or inactive are those of the source.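 The calls were made as follows: active = EC50 at or below 10 µM; inactive = EC50 above 10 µM.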

Target: cAMP-dependent protein kinase type I-alpha regulatory subunit (Bos taurus) + cAMP-dependent protein kinase catalytic subunit beta (Mus musculus) (UniProt P00514+P68181)
Assay: compounds dissociating PKAc from R1A subunit – biochemical, fluorescence polarization, powder samples, late-stage follow-up (AID 588839)
Details: PKA-R1A dissociation, Cy5-IP20 fluorescence polarization

SMILES | EC50
O=C(O)c1sccc1SCc1ccc(Cl)c(Cl)c1 | > 100 µM (inactive)
O=C(O)c1sccc1NC(=O)c1c(Cl)cccc1Cl | > 100 µM (inactive)
O=C(O)c1sc2ncccc2c1OCc1ccccc1 | > 100 µM (inactive)
O=C(O)c1sccc1SCc1ccc(Cl)cc1Cl | > 100 µM (inactive)

The remaining lines, values ahead:

EC50 | SMILES
> 100 µM (inactive) | CC(C)(C)c1ccc(COc2ccsc2C(=O)O)cc1
> 100 µM (inactive) | COC(=O)c1sc2ncccc2c1OCc1ccc(Cl)cc1Cl
> 100 µM (inactive) | COC(=O)c1sc2ncccc2c1OCc1ccccc1Cl
> 100 µM (inactive) | Cc1csc(C(=O)O)c1NC(=O)c1ccc(F)cc1
> 100 µM (inactive) | Cc1ccc(COc2ccsc2C(=O)O)cc1
